In patent US7825139B2, “Compounds and methods for selective inhibition of dipeptidyl peptidase-IV” (Forest Laboratories Holdings Limited (BM), priority 2005, dated 2010):

Assays:
dogs = assay: Toxicity in dogs, escalated oral dose study; assay type: in vivo; conditions: at 2.0 mg/kg, within 2-4 hours of dosing
Method: The 2.0 mg/kg dose of compound 19 correlated with the time above the DPP-VIII IC90 but not with the time above DPP-IX IC90. By comparison, a previously known selective inhibitor (compound 10 in U.S. patent application Ser. […]

DPP-IX = target: T1, DPP-IX (Homo sapiens, UniProt Q86TI2); assay: DPP-IX IC50 assay (Ala-Pro AMC); assay type: biochemical
T1 construct: The full length cDNAs for human DPP-VII, DPP-VIII, DPP-IX, and FAP were obtained from Open Biosystems; 6xHis (C); made in house
T1 sequence (Q86TI2 whole entry): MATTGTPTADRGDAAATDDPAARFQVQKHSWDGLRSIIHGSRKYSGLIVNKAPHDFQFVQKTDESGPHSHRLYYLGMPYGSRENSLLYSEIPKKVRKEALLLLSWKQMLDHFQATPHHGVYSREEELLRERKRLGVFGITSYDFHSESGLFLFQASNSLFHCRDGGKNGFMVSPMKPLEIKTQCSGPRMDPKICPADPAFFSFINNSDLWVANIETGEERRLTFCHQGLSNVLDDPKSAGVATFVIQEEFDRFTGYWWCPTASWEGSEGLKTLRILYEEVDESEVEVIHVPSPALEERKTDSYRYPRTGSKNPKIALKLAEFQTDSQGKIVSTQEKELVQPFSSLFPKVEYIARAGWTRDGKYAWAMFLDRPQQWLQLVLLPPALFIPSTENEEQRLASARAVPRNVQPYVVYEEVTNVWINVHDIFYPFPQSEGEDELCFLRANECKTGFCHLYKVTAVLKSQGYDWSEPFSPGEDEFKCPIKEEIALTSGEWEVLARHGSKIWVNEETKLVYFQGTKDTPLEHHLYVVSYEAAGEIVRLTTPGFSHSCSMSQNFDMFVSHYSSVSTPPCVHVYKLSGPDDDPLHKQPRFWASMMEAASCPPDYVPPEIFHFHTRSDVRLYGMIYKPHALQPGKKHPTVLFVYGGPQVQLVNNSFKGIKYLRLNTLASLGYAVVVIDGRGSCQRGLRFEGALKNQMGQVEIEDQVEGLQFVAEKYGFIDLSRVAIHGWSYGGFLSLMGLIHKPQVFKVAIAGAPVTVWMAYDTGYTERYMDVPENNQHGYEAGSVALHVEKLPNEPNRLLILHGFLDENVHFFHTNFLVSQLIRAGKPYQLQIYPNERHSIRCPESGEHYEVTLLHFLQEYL
Method: Materials. S9 insect cells and Sf-900 II SFM media were from Invitrogen. Anti-FLAG M2 immunoaffinity gel was from Sigma. Gly-Pro-AMC, Lys-Pro AMC, and Ala-Pro AMC were from Enzyme Systems. IC50 calculations were performed by non-linear regression analysis using Prism software (GraphPad). Preparation of DPP-VII, DPP-VIII, DPP-IX, and FAP baculovirus constructs. The full length cDNAs for human DPP-VII, DPP-VIII, DPP-IX, and FAP were obtained from Open Biosystems. The cDNAs were cloned into the pFastBac vector with the addition of an N-terminal FLAG tag on DPP-VII, C-terminal 6xHis tags on DPP-VIII and DPP-IX, and an N-terminal 6xHis tag on FAP (Sun 2002, Qi 2003, and Chen 2004). Baculovirus was prepared using the Bac-to-Bac Baculovirus Expression System (Invitrogen). The cDNAs in the final baculovirus constructs were sequence verified. Baculovirus expression. S9 cells were grown to mid log phase at 27C with shaking at 125 RPM and then adjusted to 2×10E6/ml just prior to baculovirus infection. Infection with DPP-VII, DPP-VIII, DPP-IX, and FAP baculoviral constructs were all performed at an MOI of 4. […] Recombinant DPPs were diluted in reaction buffer to give fluorescence values of 5000-20000 counts in the “enzyme only wells” 20 min after addition of substrate at 27° C. […] Fluorescence in each well was measured at settings of 380/460 nm. […]

DPP-VIII = target: T2, DPP-VIII (Homo sapiens, UniProt Q6V1X1); assay: DPP-VIII IC50 assay (Ala-Pro AMC), selectivity versus DPP-IV; assay type: biochemical
T2 construct: The full length cDNAs for human DPP-VII, DPP-VIII, DPP-IX, and FAP were obtained from Open Biosystems; 6xHis (C); made in house
T2 sequence (Q6V1X1 whole entry): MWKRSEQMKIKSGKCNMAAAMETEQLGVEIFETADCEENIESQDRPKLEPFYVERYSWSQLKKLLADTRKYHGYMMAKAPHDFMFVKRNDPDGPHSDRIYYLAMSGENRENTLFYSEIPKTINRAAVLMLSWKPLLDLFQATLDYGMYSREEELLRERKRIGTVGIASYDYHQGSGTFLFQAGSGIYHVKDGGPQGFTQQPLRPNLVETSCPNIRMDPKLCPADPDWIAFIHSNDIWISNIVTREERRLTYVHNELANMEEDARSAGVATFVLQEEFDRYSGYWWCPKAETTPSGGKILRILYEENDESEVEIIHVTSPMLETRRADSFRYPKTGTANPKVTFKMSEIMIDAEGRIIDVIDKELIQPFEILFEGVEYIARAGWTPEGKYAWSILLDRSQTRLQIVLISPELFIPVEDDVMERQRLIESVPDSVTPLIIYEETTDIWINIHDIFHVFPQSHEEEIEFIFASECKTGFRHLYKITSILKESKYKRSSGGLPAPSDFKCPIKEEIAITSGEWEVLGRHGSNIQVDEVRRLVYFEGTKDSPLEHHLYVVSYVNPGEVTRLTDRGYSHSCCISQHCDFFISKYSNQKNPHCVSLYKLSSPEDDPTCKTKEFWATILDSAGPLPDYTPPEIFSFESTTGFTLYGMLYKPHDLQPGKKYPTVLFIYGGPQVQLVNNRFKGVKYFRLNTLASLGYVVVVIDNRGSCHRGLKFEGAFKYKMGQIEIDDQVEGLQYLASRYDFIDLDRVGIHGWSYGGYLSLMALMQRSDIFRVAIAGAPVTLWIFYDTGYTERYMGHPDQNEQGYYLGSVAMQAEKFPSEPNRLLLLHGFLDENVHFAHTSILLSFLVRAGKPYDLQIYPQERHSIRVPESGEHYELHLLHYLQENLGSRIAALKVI
Excerpt: The term “selectivity ratio” refers to the IC50 value generated in a biochemical assay measuring inhibition of DPP-IV compared to the IC50 value generated in a biochemical assay measuring inhibition of another DPP family member (e.g. DPP-VII, DPP-VIII, DPP-IX or FAP) whereby the ratio is obtained by dividing the IC50 value of DPP-VII, DPP-VIII, DPP-IX or FAP by the IC50 value for DPP-IV.
Materials. S9 insect cells and Sf-900 II SFM media were from Invitrogen. Anti-FLAG M2 immunoaffinity gel was from Sigma. Gly-Pro-AMC, Lys-Pro AMC, and Ala-Pro AMC were from Enzyme Systems. IC50 calculations were performed by non-linear regression analysis using Prism software (GraphPad). Preparation of DPP-VII, DPP-VIII, DPP-IX, and FAP baculovirus constructs. The full length cDNAs for human DPP-VII, DPP-VIII, DPP-IX, and FAP were obtained from Open Biosystems. […] Baculovirus was prepared using the Bac-to-Bac Baculovirus Expression System (Invitrogen). The cDNAs in the final baculovirus constructs were sequence verified. Baculovirus expression. […] Infection with DPP-VII, DPP-VIII, DPP-IX, and FAP baculoviral constructs were all performed at an MOI of 4. The infected cells were grown for 48 hours and the cell pellets harvested and frozen until purification. DPP-VII was purified using anti-FLAG immunoaffinity gel according to the manufacturer's instructions. DPP-VIII, DPP-IX, and FAP were purified using a B-PER 6xHis Fusion Protein Column Purification Kit from Pierce. IC50 assay. Recombinant DPPs were diluted in reaction buffer to give fluorescence values of 5000-20000 counts in the “enzyme only wells” 20 min after addition of substrate at 27° C. Reaction buffers were 25 mM (2-(4-Morpholino)-Ethane Sulfonic Acid), pH 5.5 for DPP-VII, 25 mM Tris, pH 8, 1% Triton X-100, 100 mM NaCl for DPP-VIII, and 25 mM Tris pH 8 for DPP-1× and FAP. Test wells in a 96-well microtiter plate contained 88 μL of diluted DPP and 2.5 ul of titrated compound in 50 mM glycine, pH 2.6. “Enzyme only” wells contained 88 uL of diluted DPP and 2.5 ul of glycine buffer. “No enzyme” wells contained 88 uL of reaction buffer without DPP and 2.5 ul of glycine buffer. All assays were done in triplicate. The plate was incubated at 27° C. for 10 min and then cooled on ice for 10 min. Ten microliters of substrate diluted in reaction buffer (40 uM final concentration) without Triton or NaCl were then added to all wells followed by incubation at 27C for 20 min. Substrates were Lys-Pro AMC for DPP-VII, and Ala-Pro AMC for DPP-VIII, DPP-IX, and FAP. Fluorescence in each well was measured at settings of 380/460 nm.

Structure (SMILES): O=C(CNC1CCCC1)N1CCC[C@H]1B(O)O [Compound 19]
- toxicity in dogs (dogs): severe emesis and diarrhea
- inhibition of DPP-IX (in words) (DPP-IX): potent inhibitor
- inhibition of DPP-VIII (in words) (DPP-VIII): potent inhibitor
